Test results taken from BigSolDB 2.1.

## c1ccc2c(c1)ccc1ccccc12
In 2,2,4-trimethylpentane, 293 K
  solubility (mole fraction): 0.019
In 2,2,4-trimethylpentane, 303 K
  solubility (mole fraction): 0.036
In 2,2,4-trimethylpentane, 313 K
  solubility (mole fraction): 0.0874
In 2,2,4-trimethylpentane, 323 K
  solubility (mole fraction): 0.138
In n-heptane, 293 K
  solubility (mole fraction): 0.0154
In n-heptane, 303 K
  solubility (mole fraction): 0.0247
In n-heptane, 313 K
  solubility (mole fraction): 0.036
In n-heptane, 323 K
  solubility (mole fraction): 0.0519
In toluene, 293 K
  solubility (mole fraction): 0.461
In toluene, 303 K
  solubility (mole fraction): 0.499
In toluene, 313 K
  solubility (mole fraction): 0.577
In toluene, 323 K
  solubility (mole fraction): 0.604
